The values below come from patent US10035819B2, “PPAR agonists and methods of use thereof” (The Salk Institute for Biological Studies, priority 2014, dated 2018).

For experiment [1], the target named is T1, Human PPARδ LBD (Homo sapiens, UniProt Q03181).
T1 construct: (PPARδ amino acid 128 to C-terminus); expressed in transfected cells; host or cells: CV-1 cells
T1 sequence (Q03181 128-441 limits assumed): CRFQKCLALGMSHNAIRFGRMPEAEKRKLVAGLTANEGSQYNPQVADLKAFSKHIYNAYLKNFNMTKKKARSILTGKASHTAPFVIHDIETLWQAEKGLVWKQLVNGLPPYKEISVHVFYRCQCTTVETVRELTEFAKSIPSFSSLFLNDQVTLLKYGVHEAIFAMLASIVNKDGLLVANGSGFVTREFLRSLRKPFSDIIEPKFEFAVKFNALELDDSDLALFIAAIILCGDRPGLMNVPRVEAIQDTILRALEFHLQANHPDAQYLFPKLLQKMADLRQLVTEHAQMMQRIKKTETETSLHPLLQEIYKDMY
The experiment is described as follows: PPARδ activity screen (GAL4-PPARδ LBD luciferase transactivation in CV-1 cells). The class given is cell-based. The method, then: Cell Culture and Transfection: CV-1 cells were grown in DMEM+10% charcoal stripped FCS. Cells were seeded into 384-well plates the day before transfection to give a confluency of 50-80% at transfection. A total of […] containing 0.64 micrograms pCMX-PPARDelta LBD, 0.1 micrograms pCMXβGal, 0.08 micrograms pGLMH2004 reporter and 0.02 micrograms pCMX empty vector was transfected per well using FuGene transfection reagent according to the manufacturer's instructions (Roche).
Plasmids: Human PPARδ was used to PCR amplify the PPARδ LBD. […] Ensuing fusions were verified by sequencing.
Compounds: All compounds were dissolved in DMSO and diluted 1:1000 upon addition to the cells. Compounds were tested in quadruple in concentrations ranging from 0.001 to 100 μM. […] Each compound was tested in at least two separate experiments.
Luciferase assay: Medium including test compound was aspirated and washed with PBS. 50 μl PBS including 1 mM Mg++ and Ca++ were then added to each well. The luciferase assay was performed using the LucLite kit according to the manufacturer's instructions (Packard Instruments). Light emission was quantified by counting on a Perkin Elmer Envision reader. […] Beta-galactosidase assays were performed in the microwell plates using a kit from Promega and read in a Perkin Elmer Envision reader. The beta-galactosidase data were used to normalize (transfection efficiency, cell growth etc.) the luciferase data.
Statistical Methods: The activity of a compound is calculated as fold induction compared to an untreated sample. […] EC50 values were calculated via non-linear regression using GraphPad PRISM (GraphPad Software, San Diego, Calif.).

Experiment [2] deals with T2, PPARδ (Homo sapiens, UniProt Q03181).
T2 construct: expressed in transfected cells; host or cells: PathHunter NHR cell lines
T2 sequence (Q03181 1-441): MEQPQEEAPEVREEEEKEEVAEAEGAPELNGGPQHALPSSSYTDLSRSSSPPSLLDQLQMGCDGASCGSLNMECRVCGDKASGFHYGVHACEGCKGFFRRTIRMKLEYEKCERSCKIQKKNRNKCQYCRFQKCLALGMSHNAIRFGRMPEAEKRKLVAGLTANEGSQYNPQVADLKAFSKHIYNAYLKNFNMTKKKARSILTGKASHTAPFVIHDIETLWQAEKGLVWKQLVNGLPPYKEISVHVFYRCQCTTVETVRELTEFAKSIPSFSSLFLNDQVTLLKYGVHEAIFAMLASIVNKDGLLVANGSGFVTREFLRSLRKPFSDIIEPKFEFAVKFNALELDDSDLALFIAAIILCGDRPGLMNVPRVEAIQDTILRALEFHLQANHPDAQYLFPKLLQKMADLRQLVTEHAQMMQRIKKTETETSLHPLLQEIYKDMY
As to the kind of experiment: Nuclear Hormone Receptor (NHR) protein interaction assay (PathHunter), agonist format. Format: cell-based. The method, then:
• Cell Handling: PathHunter NHR cell lines were expanded from freezer stocks according to standard procedures. Cells were seeded in a total volume of 20 μL into white walled, 384-well microplates and incubated at 37° C. for the appropriate time prior to testing. Assay media contained charcoal-dextran filtered serum to reduce the level of hormones present. • Agonist Format: For agonist determination, cells were incubated with sample to induce response. Intermediate dilution of sample stocks was performed to generate 5× sample in assay buffer. 5 μL of 5× sample was added to cells and incubated at 37° C. or room temperature for 3-16 hours. Final assay vehicle concentration was 1%. • Antagonist Format: For antagonist determination, cells were pre-incubated with antagonist followed by agonist challenge at the EC80 concentration. Intermediate dilution of sample stocks was performed to generate 5× sample in assay buffer. 5 μL of 5× sample was added to cells and incubated at 37° C. or room temperature for 60 minutes. Vehicle concentration was 1%. […] Microplates were read following signal generation with a PerkinElmer Envision™ instrument for chemiluminescent signal detection. • Data Analysis: Compound activity was analyzed using CBIS data analysis suite (ChemInnovation, CA). For agonist mode assays, percentage activity was calculated using the following formula: % Activity=100%×(mean RLU of test sample−mean RLU of vehicle control)/(mean MAX control ligand−mean RLU of vehicle control).
For antagonist mode assays, percentage inhibition was calculated using the following formula: % Inhibition=100%×(1−(mean RLU of test sample−mean RLU of vehicle control)/(mean RLU of EC80 control−mean RLU of vehicle control)). Note that for select assays, the ligand response produces a decrease in receptor activity (inverse agonist with a constitutively active target). For those assays inverse agonist activity was calculated using the following formula: % Inverse Agonist Activity=100%×((mean RLU of vehicle control−mean RLU of test sample)/(mean RLU of vehicle control−mean RLU of MAX control)).

[3] abbreviates: EC50 nM, Table 1, CV-1 cells, GAL4-PPARδ LBD luciferase reporter, compound 24 h.
Where [4] appears, read: Table 1, CV-1 cells, GAL4-PPARδ LBD luciferase reporter, compound 24 h, read-out: EC50.

The structures appear in SMILES notation. Where two headings read alike, the source gives them in different places.

With `Cc1ccccc1-c1ccc(C(=O)N(Cc2ccccc2OCCCCCC(=O)O)C2CC2)cc1` [compound 75], in experiment [1] (setting [3]), the EC50 (in general, the concentration that produces a half-maximal response) came to 1190 nM.
Still for that read-out and setting: then `CC(C)N(Cc1ccccc1OCCCCCC(=O)O)C(=O)c1ccc(-c2ccccc2)cc1` [compound 1], with 42 nM.
On to `CC(C)N(Cc1ccccc1OCCCCCC(=O)O)C(=O)c1ccc(-c2cn[nH]c2)cc1` [compound 60], for which the concentration for a half-maximal effect (EC50) in experiment [1] (setting [4]) is 710 nM.
Consider `COc1ccc(-c2ccc(C(=O)N(Cc3ccccc3OCCCCCC(=O)O)C3CC3)cc2)cc1` [compound 80], for which, in experiment [1] (setting [3]), the EC50 worked out at 439 nM.
For the molecule `CC(C)N(Cc1ccccc1OCCCCCC(=O)O)C(=O)c1ccc(-c2ccncc2)cc1` [compound 59], in experiment [1] (setting [4]), the concentration for a half-maximal effect (EC50) is 2860 nM.
In turn, `O=C(O)CCCCCOc1ccccc1CN(C(=O)c1ccc(-c2ccccc2)cc1)C1CC1` [compound 8] returned an EC50 in experiment [1] (setting [3]) of 115 nM.
On the same count and under the same terms, the value for `CCC(C)N(Cc1ccccc1OCCCCCC(=O)O)C(=O)c1ccc(-c2cccnc2)cc1` (centres unmarked) [compound 34] was 5140 nM.
Take `O=C(O)CCCCCOc1ccccc1CN(C(=O)c1ccc(-c2cccnc2)cc1)C1CC1` [compound 9]: the concentration for a half-maximal effect (EC50) in experiment [1] (setting [4]) is 1960 nM.
Regarding `O=C(O)CCCCCOc1ccccc1CN(C(=O)c1ccc(-c2ccccc2)cc1)C1CCCC1` [compound 65], a half-maximal response in experiment [1] (setting [3]) (EC50) required 405 nM.
Same read-out and setting: the value for `CCC(C)N(Cc1ccccc1OCCCCCC(=O)O)C(=O)c1ccc(-c2ccncc2)cc1` (centres unmarked) [compound 35] was 6400 nM; that for `CCC(C)N(Cc1ccccc1OCCCCCC(=O)O)C(=O)c1ccc(-c2ccoc2)cc1` (centres unmarked) [compound 38] was 290 nM.
`COc1cccc(-c2ccc(C(=O)N(Cc3ccccc3OCCCCCC(=O)O)C3CC3)cc2)c1` [compound 79] came in with a concentration for a half-maximal effect (EC50) in experiment [1] (setting [3]) of 301 nM.
As for `O=C(O)CCCCCOc1ccccc1CN(C(=O)c1ccc(-c2ccoc2)cc1)C1CC1` [compound 13], the EC50 in experiment [1] (setting [4]) turned out to be 215 nM.
Turning to `CCC(C)N(Cc1ccccc1OCCCCCC(=O)O)C(=O)c1ccc(-c2ccco2)cc1` (centres unmarked) [compound 37], the EC50 in experiment [2] was 17.5 nM; in experiment [1] (setting [3]), 41 nM; in experiment [1] (PPARd, EC50 (nM) (from Salk), Table 15) it was 41 nM.
Take `O=C(O)CCCCCOc1ccccc1CN(C(=O)c1ccc(-c2ccco2)cc1)C1CCCC1` [compound 69]: the EC50 in experiment [1] (setting [4]) was determined as 51.4 nM.
Still for that read-out and setting: the value for `O=C(O)CCCCCOc1ccccc1CN(C(=O)c1ccc(-c2cn[nH]c2)cc1)C1CCCC1` [compound 68] was 605 nM.
In the case of `O=C(O)CCCCCOc1ccccc1CN(C(=O)c1ccc(-c2cn[nH]c2)cc1)C1CC1` [compound 11], the EC50 in experiment [1] (setting [4]) was found to be 2120 nM.
Regarding `O=C(O)CCCCCOc1ccccc1CN(C(=O)c1ccc(-c2cccs2)cc1)C1CC1` [compound 14], the EC50 in experiment [1] (setting [3]) was 1800 nM.
With `O=C(O)CCCCCOc1ccccc1CN(C(=O)c1ccc(-c2ccncc2)cc1)C1CCCC1` [compound 67], the half-maximal effective concentration (EC50) in experiment [1] (setting [4]) was found to be 1490 nM.
For the molecule `O=C(O)CCCCCOc1ccccc1CN(C(=O)c1ccc(-c2ccc(C(F)(F)F)cc2)cc1)C1CC1` [compound 92], a half-maximal response in experiment [1] (setting [3]) (EC50) required 1760 nM.
Take `O=C(O)CCCCCOc1ccccc1CN(C(=O)c1ccc(-c2cccnc2)cc1)C1CCCC1` [compound 66]: the EC50 in experiment [1] (setting [4]) was 786 nM.
Still for that read-out and setting: the value for `O=C(O)CCCCCOc1ccccc1CN(C(=O)c1ccc(-c2ccsc2)cc1)C1CC1` [compound 15] was 58.4 nM.
Still for that read-out and setting: then `O=C(O)CCCCCOc1ccccc1CN(C(=O)c1ccc(-c2cccs2)cc1)C1CCCC1` [compound 71], with 753 nM.
Consider `O=C(O)CCCCCOc1ccccc1CN(C(=O)c1ccc(-c2cccc(F)c2)cc1)C1CC1` [compound 82], for which the response in experiment [1] (setting [3]) was half-maximal at 150 nM (EC50).
`CC(C)N(Cc1ccccc1OCCCCCC(=O)O)C(=O)c1ccc(-c2cccs2)cc1` [compound 63]: the EC50 in experiment [2] was determined as 8.4 nM.
In experiment [1] (setting [3]), `Cc1ccc(C)c(-c2ccc(C(=O)N(Cc3ccccc3OCCCCCC(=O)O)C3CC3)cc2)c1` [compound 87] registered an EC50 of 1150 nM.
On the same count and under the same terms, then `CCc1ccccc1-c1ccc(C(=O)N(Cc2ccccc2OCCCCCC(=O)O)C2CC2)cc1` [compound 84], with 2500 nM; and `CCC(C)N(Cc1ccccc1OCCCCCC(=O)O)C(=O)c1ccc(-c2ccccc2)cc1` (centres unmarked) [compound 33], with 954 nM; and `O=C(O)CCCCCOc1ccccc1CN(C(=O)c1ccc(-c2ccccc2F)cc1)C1CC1` [compound 81], with 597 nM.
Same read-out and setting: then `Cc1cccc(-c2ccc(C(=O)N(Cc3ccccc3OCCCCCC(=O)O)C3CC3)cc2)c1` [compound 76], with 318 nM.
On to `O=C(O)CCCCCOc1ccccc1CN(C(=O)c1ccc(-c2ccsc2)cc1)C1CCCC1` [compound 72], for which, in experiment [1] (setting [4]), the concentration for a half-maximal effect (EC50) worked out at 29.3 nM.
The molecule `O=C(O)CCCCCOc1ccccc1CN(C(=O)c1ccc(-c2ccc(F)cc2)cc1)C1CC1` [compound 83] yielded an EC50 in experiment [1] (setting [3]) of 364 nM.
In turn, `COc1ccccc1-c1ccc(C(=O)N(Cc2ccccc2OCCCCCC(=O)O)C2CC2)cc1` [compound 78] showed an EC50 in experiment [1] (setting [3]) of 1870 nM.
For the molecule `O=C(O)CCCCCOc1ccccc1CN(C(=O)c1ccc(-c2ccoc2)cc1)C1CCCC1` [compound 70], in experiment [1] (setting [4]), the EC50 was determined as 127 nM.
`Cc1cc(C)cc(-c2ccc(C(=O)N(Cc3ccccc3OCCCCCC(=O)O)C3CC3)cc2)c1` [compound 89] displayed a concentration for a half-maximal effect (EC50) in experiment [1] (setting [3]) of 1760 nM.
The same measure, in the same setting: the value for `O=C(O)CCCCCOc1ccccc1CN(C(=O)c1ccc(-c2cccc(C(F)(F)F)c2)cc1)C1CC1` [compound 91] was 1150 nM; that for `CCC(C)N(Cc1ccccc1OCCCCCC(=O)O)C(=O)c1ccc(-c2cccs2)cc1` (centres unmarked) [compound 39] was 2100 nM.
Still for that read-out and setting: then `CCC(C)N(Cc1ccccc1OCCCCCC(=O)O)C(=O)c1ccc(-c2cn[nH]c2)cc1` (centres unmarked) [compound 36], with 15400 nM; and `CCC(C)N(Cc1ccccc1OCCCCCC(=O)O)C(=O)c1ccc(-c2ccsc2)cc1` (centres unmarked) [compound 40], with 179 nM.
Take `CCC(C)N(Cc1ccccc1OCCCCCC(=O)O)C(=O)c1ccc(Br)cc1` (centres unmarked) [compound 32]: the half-maximal effective concentration (EC50) in experiment [1] (setting [3]) was 611 nM.
For the molecule `O=C(O)CCCCCOc1ccccc1CN(C(=O)c1ccc(-c2ccccc2C(F)(F)F)cc1)C1CC1` [compound 90], in experiment [1] (setting [3]), the concentration giving a half-maximal response (EC50) stood at 1300 nM.
The same measure, in the same setting: then `Cc1cccc(-c2ccc(C(=O)N(Cc3ccccc3OCCCCCC(=O)O)C3CC3)cc2)c1C` [compound 86], with 1300 nM.
On the same count and under the same terms, then `CC(C)N(Cc1ccccc1OCCCCCC(=O)O)C(=O)c1ccc(-c2cccnc2)cc1` [compound 58], with 1240 nM; and `Cc1ccc(-c2ccc(C(=O)N(Cc3ccccc3OCCCCCC(=O)O)C3CC3)cc2)cc1` [compound 77], with 372 nM.
Still for that read-out and setting: the value for `CCCc1ccc(-c2ccc(C(=O)N(Cc3ccccc3OCCCCCC(=O)O)C3CC3)cc2)cc1` [compound 93] was 1340 nM.
